Converted amounts (≈) assume the structure as drawn.
system: Plasmodium falciparum; assay: Antimalarial activity against chloroquine, mefloquine, pyrimethamine and atovaquone-resistant Plasmodium falciparum TM90-C2B infected in human A+ erythrocytes after 72 hrs by SYBR Green I assay; type: functional, organism-based; details: not given

SMILES	EC50 [nM]
Cc1[nH]c2ccc(Cl)cc2c(=O)c1-c1ccccc1	777
Cc1[nH]c2c(Cl)cccc2c(=O)c1-c1ccccc1	> 9270
Cc1[nH]c2ccc(Cl)c(Cl)c2c(=O)c1-c1ccccc1	3210
Cc1[nH]c2c(Cl)cc(Cl)cc2c(=O)c1-c1ccccc1	> 8220
COc1cc2[nH]c(C)c(-c3ccccc3)c(=O)c2cc1F	83
COc1cc2[nH]c(C)c(-c3ccccc3)c(=O)c2cc1Cl	15.3
COc1cc2[nH]c(C)c(-c3ccccc3)c(=O)c2cc1Br	25
CCCCCCCc1c(C)[nH]c2cc(OC)c(Cl)cc2c1=O	2.95
COc1cc2[nH]c(C)c(C3CCCCC3)c(=O)c2cc1Cl	397
C=C(CCCCC)c1c(C)[nH]c2cc(OC)c(Cl)cc2c1=O	14.8
COc1cc2[nH]c(C)c(/C=C/C(=O)OC(C)(C)C)c(=O)c2cc1Cl	53.6
CCCCCCCc1c(C)nc2cc(OC)ccc2c1O	46.6

system: not listed separately; assay: Half life in mouse liver microsomes; type: ADME, Microsome; details: not given

SMILES	half-life [min]
COc1cc2[nH]c(C)c(-c3ccccc3)c(=O)c2cc1Cl	21.3
COc1cc2[nH]c(C)c(/C=C/C(=O)OC(C)(C)C)c(=O)c2cc1Cl	43.9
CCCCCCCc1c(C)nc2cc(OC)ccc2c1O	7.9

system: not listed separately; assay: Passive transcellular permeability of the compound at pH 7.4 by PAMPA; type: ADME; details: read-out: permeability

SMILES	Papp [×10⁻⁶ cm/s]
Cc1[nH]c2ccc(Cl)cc2c(=O)c1-c1ccccc1	108
Cc1[nH]c2c(Cl)cccc2c(=O)c1-c1ccccc1	165
Cc1[nH]c2ccc(Cl)c(Cl)c2c(=O)c1-c1ccccc1	192
Cc1[nH]c2c(Cl)cc(Cl)cc2c(=O)c1-c1ccccc1	232
COc1cc2[nH]c(C)c(-c3ccccc3)c(=O)c2cc1F	124
COc1cc2[nH]c(C)c(-c3ccccc3)c(=O)c2cc1Cl	48.3
COc1cc2[nH]c(C)c(-c3ccccc3)c(=O)c2cc1Br	330
CCCCCCCc1c(C)[nH]c2cc(OC)c(Cl)cc2c1=O	< 0.01
COc1cc2[nH]c(C)c(C3CCCCC3)c(=O)c2cc1Cl	630
C=C(CCCCC)c1c(C)[nH]c2cc(OC)c(Cl)cc2c1=O	755
COc1cc2[nH]c(C)c(/C=C/C(=O)OC(C)(C)C)c(=O)c2cc1Cl	261
CCCCCCCc1c(C)nc2cc(OC)ccc2c1O	679

system: not listed separately; assay: Half life in human liver microsomes; type: ADME, Microsome; details: not given

SMILES	half-life [min]
COc1cc2[nH]c(C)c(-c3ccccc3)c(=O)c2cc1Cl	128
COc1cc2[nH]c(C)c(/C=C/C(=O)OC(C)(C)C)c(=O)c2cc1Cl	60.3
CCCCCCCc1c(C)nc2cc(OC)ccc2c1O	10.2

system: not listed separately; assay: Lipophilicity, log D of the compound at pH 7.4; details: buffer

SMILES	logD
Cc1[nH]c2ccc(Cl)cc2c(=O)c1-c1ccccc1	2.43
Cc1[nH]c2c(Cl)cccc2c(=O)c1-c1ccccc1	2.6
Cc1[nH]c2ccc(Cl)c(Cl)c2c(=O)c1-c1ccccc1	2.83
Cc1[nH]c2c(Cl)cc(Cl)cc2c(=O)c1-c1ccccc1	3.32
COc1cc2[nH]c(C)c(-c3ccccc3)c(=O)c2cc1F	1.72
COc1cc2[nH]c(C)c(-c3ccccc3)c(=O)c2cc1Cl	1.65
COc1cc2[nH]c(C)c(-c3ccccc3)c(=O)c2cc1Br	2.2
CCCCCCCc1c(C)[nH]c2cc(OC)c(Cl)cc2c1=O	< 3.83
COc1cc2[nH]c(C)c(C3CCCCC3)c(=O)c2cc1Cl	3.04
C=C(CCCCC)c1c(C)[nH]c2cc(OC)c(Cl)cc2c1=O	3.58
COc1cc2[nH]c(C)c(/C=C/C(=O)OC(C)(C)C)c(=O)c2cc1Cl	1.81
CCCCCCCc1c(C)nc2cc(OC)ccc2c1O	3.69

system: not listed separately; assay: Passive transcellular permeability of the compound at pH 4 by PAMPA; type: ADME; details: not given

SMILES	permeability [×10⁻⁶ cm/s]
COc1cc2[nH]c(C)c(C3CCCCC3)c(=O)c2cc1Cl	1235.85
CCCCCCCc1c(C)nc2cc(OC)ccc2c1O	1019.9

same assay, conditions: read-out: permeability

SMILES	Papp [×10⁻⁶ cm/s]
Cc1[nH]c2ccc(Cl)cc2c(=O)c1-c1ccccc1	111
Cc1[nH]c2c(Cl)cccc2c(=O)c1-c1ccccc1	158
Cc1[nH]c2ccc(Cl)c(Cl)c2c(=O)c1-c1ccccc1	285
Cc1[nH]c2c(Cl)cc(Cl)cc2c(=O)c1-c1ccccc1	162
COc1cc2[nH]c(C)c(-c3ccccc3)c(=O)c2cc1F	192
COc1cc2[nH]c(C)c(-c3ccccc3)c(=O)c2cc1Cl	105
COc1cc2[nH]c(C)c(-c3ccccc3)c(=O)c2cc1Br	306
CCCCCCCc1c(C)[nH]c2cc(OC)c(Cl)cc2c1=O	< 0.01
C=C(CCCCC)c1c(C)[nH]c2cc(OC)c(Cl)cc2c1=O	768
COc1cc2[nH]c(C)c(/C=C/C(=O)OC(C)(C)C)c(=O)c2cc1Cl	249

system: not listed separately; assay: in vitro; details: mouse, J774 cells
Description: Cytotoxicity index, ratio of EC50 for mice (Mus musculus) J774 cells to EC50 for chloroquine, mefloquine, pyrimethamine and atovaquone-resistant Plasmodium falciparum TM90-C2B

SMILES	selectivity ratio
Cc1[nH]c2ccc(Cl)cc2c(=O)c1-c1ccccc1	> 47.7
Cc1[nH]c2c(Cl)cccc2c(=O)c1-c1ccccc1	> 4
Cc1[nH]c2ccc(Cl)c(Cl)c2c(=O)c1-c1ccccc1	> 10.2
Cc1[nH]c2c(Cl)cc(Cl)cc2c(=O)c1-c1ccccc1	> 4
COc1cc2[nH]c(C)c(-c3ccccc3)c(=O)c2cc1F	> 425
COc1cc2[nH]c(C)c(-c3ccccc3)c(=O)c2cc1Cl	> 2170
COc1cc2[nH]c(C)c(-c3ccccc3)c(=O)c2cc1Br	> 1160
CCCCCCCc1c(C)[nH]c2cc(OC)c(Cl)cc2c1=O	> 10500
COc1cc2[nH]c(C)c(C3CCCCC3)c(=O)c2cc1Cl	> 82.3
C=C(CCCCC)c1c(C)[nH]c2cc(OC)c(Cl)cc2c1=O	1280
COc1cc2[nH]c(C)c(/C=C/C(=O)OC(C)(C)C)c(=O)c2cc1Cl	> 533
CCCCCCCc1c(C)nc2cc(OC)ccc2c1O	> 747

system: Plasmodium falciparum; assay: Antimalarial activity against chloroquine and pyrimethamine-resistant Plasmodium falciparum W2 infected in human A+ erythrocytes after 72 hrs by SYBR Green I assay; type: functional, organism-based; details: W2, 72 h

SMILES	EC50 [nM]
Cc1[nH]c2ccc(Cl)cc2c(=O)c1-c1ccccc1	244
Cc1[nH]c2c(Cl)cccc2c(=O)c1-c1ccccc1	> 9270
Cc1[nH]c2ccc(Cl)c(Cl)c2c(=O)c1-c1ccccc1	659
Cc1[nH]c2c(Cl)cc(Cl)cc2c(=O)c1-c1ccccc1	> 8220
COc1cc2[nH]c(C)c(-c3ccccc3)c(=O)c2cc1F	167
COc1cc2[nH]c(C)c(-c3ccccc3)c(=O)c2cc1Cl	26.2
COc1cc2[nH]c(C)c(-c3ccccc3)c(=O)c2cc1Br	79.4
CCCCCCCc1c(C)[nH]c2cc(OC)c(Cl)cc2c1=O	12.3
COc1cc2[nH]c(C)c(C3CCCCC3)c(=O)c2cc1Cl	237
C=C(CCCCC)c1c(C)[nH]c2cc(OC)c(Cl)cc2c1=O	39.4
COc1cc2[nH]c(C)c(/C=C/C(=O)OC(C)(C)C)c(=O)c2cc1Cl	61.7
CCCCCCCc1c(C)nc2cc(OC)ccc2c1O	8.59

system: not listed separately; assay: physchem; details: aqueous, pH 7.4
Description: Aqueous solubility of the compound at pH 7.4 by HPLC analysis

SMILES	solubility [µM]
Cc1[nH]c2ccc(Cl)cc2c(=O)c1-c1ccccc1	5 (≈ 1.35 µg/mL)
Cc1[nH]c2c(Cl)cccc2c(=O)c1-c1ccccc1	5 (≈ 1.35 µg/mL)
Cc1[nH]c2ccc(Cl)c(Cl)c2c(=O)c1-c1ccccc1	< 2
Cc1[nH]c2c(Cl)cc(Cl)cc2c(=O)c1-c1ccccc1	< 2
COc1cc2[nH]c(C)c(-c3ccccc3)c(=O)c2cc1F	5 (≈ 1.42 µg/mL)
COc1cc2[nH]c(C)c(-c3ccccc3)c(=O)c2cc1Cl	5 (≈ 1.5 µg/mL)
COc1cc2[nH]c(C)c(-c3ccccc3)c(=O)c2cc1Br	< 2
CCCCCCCc1c(C)[nH]c2cc(OC)c(Cl)cc2c1=O	< 2
COc1cc2[nH]c(C)c(C3CCCCC3)c(=O)c2cc1Cl	5 (≈ 1.53 µg/mL)
C=C(CCCCC)c1c(C)[nH]c2cc(OC)c(Cl)cc2c1=O	2 (≈ 0.64 µg/mL)
COc1cc2[nH]c(C)c(/C=C/C(=O)OC(C)(C)C)c(=O)c2cc1Cl	5 (≈ 1.75 µg/mL)
CCCCCCCc1c(C)nc2cc(OC)ccc2c1O	2 (≈ 0.575 µg/mL)

system: J774; assay: Cytotoxicity against mouse J774 cells; type: cell-based; details: not given

SMILES	EC50 [nM]
Cc1[nH]c2ccc(Cl)cc2c(=O)c1-c1ccccc1	> 37100
Cc1[nH]c2c(Cl)cccc2c(=O)c1-c1ccccc1	> 37100
Cc1[nH]c2ccc(Cl)c(Cl)c2c(=O)c1-c1ccccc1	> 32900
Cc1[nH]c2c(Cl)cc(Cl)cc2c(=O)c1-c1ccccc1	> 32900
COc1cc2[nH]c(C)c(-c3ccccc3)c(=O)c2cc1F	> 35300
COc1cc2[nH]c(C)c(-c3ccccc3)c(=O)c2cc1Cl	> 33400
COc1cc2[nH]c(C)c(-c3ccccc3)c(=O)c2cc1Br	> 29100
CCCCCCCc1c(C)[nH]c2cc(OC)c(Cl)cc2c1=O	> 37100
COc1cc2[nH]c(C)c(C3CCCCC3)c(=O)c2cc1Cl	> 32700
C=C(CCCCC)c1c(C)[nH]c2cc(OC)c(Cl)cc2c1=O	18900
COc1cc2[nH]c(C)c(/C=C/C(=O)OC(C)(C)C)c(=O)c2cc1Cl	> 28600
CCCCCCCc1c(C)nc2cc(OC)ccc2c1O	> 34800

— ChEMBL document CHEMBL1255199, “Endochin optimization: structure-activity and structure-property relationship studies of 3-substituted 2-methyl-4(1H)-quinolones with antimalarial activity” (J Med Chem, 2010)
